What all share (type): cell-based, mouse
Assay [1] relates to corpus cavernosal strips (CCS). Put plainly: cAMP levels in isolated CCS (penile organ culture) in response to adenosine. The method, then:
FIG. 17. A2BR signaling is required for adenosine-mediated corpus cavernosal strips (CCS) relaxation. (a) CCS of wild type mice were treated with different concentrations of theophiline (1-10 μM) in the presence or absence of adenosine (100 μM). The force changes were measured by force transducer. Data are expressed as mean±SE. *p<0.05, adenosine treated versus the control, **p<0.05, theophiline treated versus the untreated, N=5. (b) CCS from wild type, A2AR, A1R A2BR and A3R-deficient mice were treated with different concentrations of adenosine. The relaxation was measured by force transducer. Data are expressed as mean±SE. *p<0.05, adenosine treated versus the wild type. […] 10 min after treatment, cellular extracts were collected and cAMP levels were measured by using a commercial enzyme immunoassay kit (Amersham Pharmacia). Data are expressed as mean±SE. *p<0.05, adenosine treated versus the control without treatment; **p<0.05, adenosine treated with MRS1706 versus the adenosine treated alone; ***p<0.05, CCS of A2BR-deficient mice treated with adenosine versus the CCS of wild type mice treated with adenosine. […]
In vitro corpus cavernosum tissue culture. […] Subsequently cavernosal strips were removed at and immediately frozen in liquid nitrogen for phosphorylation of myosin light chain determined by western blot analysis (see below). […]
(In general: cAMP levels reflect the balance of adenylyl cyclase and phosphodiesterase activity.)

In assay [2] the test system is corpus cavernosal strips (CCS). Nature of the assay: EFS-induced relaxation of CCS of SCD transgenic mice and controls. As to the method: FIG. 21. Priapic activity seen in SCD transgenic mice is dependent on elevated adenosine in penis via A2BR signaling. (a) Adenosine levels in the penis increased in SCD transgenic mice. Perchloric acid extracts of penile tissues from SCD transgenic mice and control mice were analyzed by HPLC to determine the levels of adenosine. The data are expressed as mean±SE. *p<0.005, (control n=5 and SCD transgenic mice n=6), SCD transgenic mice versus the controls. (b) Increased corpus cavernosum strips (CCS) relaxation by electrical field stimulation (EFS) in SCD transgenic mice. Relaxation effect of EFS with different voltages (0-30V) at 30 Hz and 0.5 ms pulse width, alternating polarity between pulses, in 10 μM phenylephrine-precontracted CCS from the controls (n=5) and SCD transgenic mice (n=5). (c-e) Prolonged penile erection seen in SCD transgenic mice is due to high levels of adenosine in the penis via A2BR signaling. Average EFS-induced relaxation from the PE-precontracted CC strips of the controls and SCD transgenic mice treated without or with PEG-ADA, MRS1706 or ZM241389. EFS-induced force change (c), duration of relaxation by EFS (d) and area under basal line (e) were representative of the CCS relaxation. (n=5 for the controls and n=5 for SCD transgenic mice with or without PEG-ADA, MRS1706 or ZM241389 treatment, respectively). Data are given as means±SE. *p<0.05, SCD transgenic mice versus the controls, **p<0.05, CCS of […] with PEG-ADA, MRS1706 or ZM241389 treatment versus CCS of SCD transgenic mice without treatment; ***p<0.05, CCS of the control mice with MRS1706 and/or L-NAME treatment versus CCS of the control mice without treatment.
Sickle cell disease (SCD) transgenic mice, expressing exclusively human sickle hemoglobin, were also used. These mice were age-matched, adult male homozygotes [SS^−/−, consisting of a transgene and two targeted gene deletions: (Tg (Hu-miniLCR alpha 1G gamma A gamma delta beta s) Hba0//Hba0 Hbb0//Hbb00) and heterozygotes (SS^−/+, SS^−/− genotype except Hbb0//Hbb+), developed on a mixed-strain background (mouse strains FVB/N, 129, DBA/2, C57BL/6, Black Swiss)^94,95.
(§1) Function experiments. The tunica albuginea was cut longitudinally, starting at the most proximal point of the corpus cavernosum (CC) toward the penile shaft, and the erectile tissue was partially dissected free from the tunica. One strip of tissue (0.3×0.3×3 mm) was obtained from each corpus cavernosum. The contractility of each isolated corpus cavernosum smooth muscle cells (CCSM) strip was measured using an isometric force transducer (AD Instrument Inc., Georgia, Vt., USA). The strip was mounted in a thermostatically controlled tissue bath containing aerated PSS (mM: 119 NaCl, 4.7 KCl, 24 NaHCO 3, 1.2 KH2PO4, 2.5 CaCl2, 1.2 MgSO4, 0.023 EDTA, and 11 glucose; 5 ml volume, 95% O2 and 5% CO2, 37° C.) and stretched to a resting tension of 0.1 mN. The contractile responses of the strips were analysed by adding 10 μM phenylephrine to the bath, and force changes were recorded in response to drug application and to electrical field stimulation. The particular electrical field stimulation parameters of 0-30V, 30 HZ with a pulse width of approximately 0.5 ms, are commonly used in the mice. […] The changes of cAMP and cGMP contents in CC strips were subsequently measured by commercial enzyme immunoassay kit (Amersham Pharmacia) (see below).

Assay [3] deals with corpus cavernosal strips (CCS). Put plainly: Adenosine-induced relaxation of corpus cavernosal strips (CCS). As to the method:
FIG. 16. […] CCS of wild type mice were treated with different concentrations of adenosine with or without DCF (5 μM), a specific inhibitor of adenosine deaminase. Then the extent (mN) of force was monitored. (b) CCS of wild type mice were treated with 100 μM adenosine in the presence of different concentrations of DCF (0-100 uM). Then the extent of force was measured. Data are expressed as mean±SE. *p<0.05, adenosine treated versus the control, **p<0.05, DCF treated versus the adenosine treated.
FIG. 17. A2BR signaling is required for adenosine-mediated corpus cavernosal strips (CCS) relaxation. (a) CCS of wild type mice were treated with different concentrations of theophiline (1-10 μM) in the presence or absence of adenosine (100 μM). The force changes were measured by force transducer. Data are expressed as mean±SE. *p<0.05, adenosine treated versus the control, **p<0.05, theophiline treated versus the untreated, N=5. (b) CCS from wild type, A2AR, A1R A2BR and A3R-deficient mice were treated with different concentrations of adenosine. The relaxation was measured by force transducer. Data are expressed as mean±SE. *p<0.05, adenosine treated versus the wild type. (c) CCS were isolated from wild type and A2BR-deficient mice and treated with different concentrations of adenosine in the presence or absence of L-NAME (100 μM) or MRS1706 (10 μM). 10 min after treatment, cellular extracts were collected and cAMP levels were measured by using a commercial enzyme immunoassay kit (Amersham Pharmacia). Data are expressed as mean±SE. *p<0.05, adenosine treated versus the control without treatment; **p<0.05, adenosine treated with MRS1706 versus the adenosine treated alone; ***p<0.05, CCS of A2BR-deficient mice treated with adenosine versus the CCS of wild type mice treated with adenosine. N=6-7. (d) CCS of A2BR and ADA double deficient mice lost the hypersensitivity to nerve stimulation compared to ADA deficient mice.
as §1

Setting [4] is: CCS of SCD transgenic mice versus untreated CCS.

In the case of `CCCn1c(=O)c2[nH]c(-c3ccc(OCC(=O)Nc4ccc(C(C)=O)cc4)cc3)nc2n(CCC)c1=O` [MRS1706], in assay [1] (CCS, MRS1706 10 μM, L-NAME 100 μM), the “adenosine-mediated induction of cAMP was inhibited” value is “inhibited”. Moreover, the “force, duration and area under baseline of EFS-induced relaxation” value was “reduced the force, duration and area under baseline” in assay [2] (setting [4]); “decreased the force, duration and area under baseline” in assay [2] (CCS of the controls).
On to `Nc1nc(NCCc2ccc(O)cc2)nc2nc(-c3ccco3)nn12` [ZM241385], for which the “force, duration and area under baseline of EFS-induced relaxation” value in assay [2] (setting [4]) was “not”.
`Nc1ncnc2c1ncn2[C@@H]1O[C@H](CO)[C@@H](O)[C@H]1O` [adenosine]: the cAMP levels entry in assay [1] (wild type penile organ culture, 10 min) is “induced cAMP levels in a dose-dependent manner”. Besides, the CCS relaxation result is on record as “dose-dependent increase in relaxation” in assay [3] (A1R, A2AR and A3R deficient mice and wild type mice); “completely absent” in assay [3] (CCS from A2BR deficient mice); “induced CCS relaxation in a dosage dependent manner” in assay [3] (CCS from wild type mice, different concentrations).

(Values after patent publication US20100254965A1, “Adenosine Signaling in Diagnosis, Treatment, and Prevention of Priapism and Erectile Dysfunction” (BOARD OF REGENTS ,THE UNIVERSITY OF TEXAS SYSTEM, priority 2006, published 2010).)
